Several values for one entry are separate records, joined by “and”; a condition that tells them apart may be missing. Equal entries are not always repeated.
What was measured:
[1] = molecular target: T1, human Fpn (Homo sapiens, UniProt Q9NP59); test: Radiotracer metal efflux assay in Xenopus oocytes expressing human Fpn; type: cell-based
T1 construct: expressed in transfected cells; host or cells: Xenopus laevis oocytes injected with Fpn RNA
T1 sequence (Q9NP59 1-571): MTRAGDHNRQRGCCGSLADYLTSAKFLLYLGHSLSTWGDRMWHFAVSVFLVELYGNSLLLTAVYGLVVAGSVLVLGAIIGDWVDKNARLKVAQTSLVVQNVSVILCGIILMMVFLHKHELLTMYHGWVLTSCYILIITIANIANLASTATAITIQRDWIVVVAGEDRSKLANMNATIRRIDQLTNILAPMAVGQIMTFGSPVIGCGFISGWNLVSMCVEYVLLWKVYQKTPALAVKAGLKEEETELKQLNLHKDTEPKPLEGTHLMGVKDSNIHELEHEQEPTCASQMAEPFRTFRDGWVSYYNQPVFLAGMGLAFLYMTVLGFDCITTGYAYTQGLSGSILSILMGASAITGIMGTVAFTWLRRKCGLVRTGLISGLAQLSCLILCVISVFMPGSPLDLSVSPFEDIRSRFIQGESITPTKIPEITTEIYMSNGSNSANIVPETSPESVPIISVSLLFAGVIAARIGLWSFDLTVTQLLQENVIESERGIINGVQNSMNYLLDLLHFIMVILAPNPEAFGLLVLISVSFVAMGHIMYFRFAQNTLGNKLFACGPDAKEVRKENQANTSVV
Procedure: We performed laparotomy and ovariectomy on adult female Xenopus laevis frogs (Nasco, Fort Atkinson, WI) under 2-aminoethylbenzoate methanesulfonate anesthesia (0.2%, by immersion, to effect) following a protocol approved by the University of Cincinnati Institutional Animal Care and Use Committee. Ovarian tissue was isolated and treated for 3 h with […] collagenase A (Roche Diagnostics Corp., Indianapolis, IN) in calcium-free-modified Barths’ medium (MBM) of composition 88 mM NaCl, 1 mM KCl, 2.4 mM NaHCO3, 1.57 mM MgSO4, 0.66 mM NaNO3, 10 mM 4-(2-hydroxyethyl)-1-piperazineethanesulfonic acid (HEPES), buffered to pH 7.5 by using 2-amino-2-hydroxymethyl-propane-1,3-diol (Tris base). We isolated defolliculate stage V–VI oocytes stored at 17 °C in MBM of composition 88 mM NaCl, 1 mM KCl, 2.4 mM NaHCO3, 0.82 MgSO4, 0.75 mM CaCl2, 0.66 mM NaNO3, 10 mM HEPES, buffered to pH 7.5 by using Tris base, with 50 mg l^−1 ciprofloxacin. We expressed in Xenopus oocytes the 1A transcript form of human Fpn fused at its C-terminus with the enhanced green fluorescent protein (GFP) as described. Oocytes were injected with ∼50 ng of Fpn RNA and incubated for 4–6 days before being used in functional assays. Control oocytes were noninjected.
We measured metal efflux from oocytes expressing Fpn by using a radiotracer assay. Radiochemicals ^55Fe, ^45Ca, ^57Co, ^65Zn were obtained from Perkin-Elmer Life Science Products (Boston, MA) and ^63Ni from the National Isotope Development Center (Oak Ridge, TN). We used ^55Fe (added as FeCl3) at final specific activity 0.4–2.0 GBq mg^−1, ^45Ca (added as CaCl2) at final specific activity 0.5–0.9 GBq mg^−1, ^57Co (added as CoCl2) at final specific activity 1.6 GBq mg^−1, ^65Zn (added as ZnCl2) at final specific activity 0.2 GBq mg^−1, and ^63Ni (added as NiCl2) at final specific activity 0.6 GBq mg^−1. Oocytes were injected with 50 nl of 5 μM metal radionuclide (*M) in vehicle of composition 250 mM KCl, 5 mM nitrilotriacetic acid, trisodium salt, buffered to pH 7.0 with ∼4 mM 2-(N-morpholino)ethanesulfonic acid (MES) (GFS Chemicals, Columbus, OH). After injection, oocytes were briefly stored in ice-cold MBM (for 1–5 min) prior to the start of the efflux assay.
To initiate the efflux assay, we placed oocytes in standard efflux medium of composition 100 mM NaCl, 1 mM KCl, 2 mM CaCl2, 1 mM MgCl2, 0.5 mM bathophenanthroline disulfonic acid (BPS), 1 mM nitrilotriacetic acid (NTA) trisodium salt, 50 μg/ml apotransferrin (ApoTf) (R&D Systems Inc., Minneapolis, MN), buffered with 0–5 mM MES, and 0–5 mM N′,N′-diethylpiperazine to obtain pH 7.5, with the following exceptions. To prepare Ca^2+-free medium, we replaced 2 mM CaCl2 with 4 mM NaCl and added 1 mM ethylene glycol-bis(2-aminoethyl ether)-N,N,N′,N′-tetraacetic acid (EGTA). To prepare Mg^2+-free medium, we replaced […] MgCl2 with 4 mM NaCl and added 1 mM ethylenediaminetetraacetic acid (EDTA). To measure ^55Fe efflux as a function of extracellular [Ca^2+] over the range 0.1–20 mM Ca^2+ (Figs. 1c, 6b), we adjusted [NaCl] and [CaCl2] on a 2:1 molar basis without the addition of EGTA. Oocytes were then transferred individually in 200 µl of medium to flat-bottomed wells of a 96-well plate and incubated 30 min—within the linear phase of metal efflux[10] —at 23–27 °C with gentle rocking. To terminate efflux, we removed 150 µl of medium (0.75 × [N0–Nt]) from each well for liquid-scintillation counting in Ultima Gold liquid-scintillation cocktail (Perkin-Elmer, Waltham, MA). The corresponding oocytes were rinsed twice in ice-cold medium (without BPS), solubilized with 5% (w/v) sodium dodecyl sulfate, and counted (Nt). We fit our data for oocyte radiotracer content (N) over time (Eq. (1)) and obtained the first-order rate constant (k) for metal radionuclide (*M) efflux for individual oocytes. N0 and Nt are counts per min (cpm) in the oocyte at time = 0 and time = t, respectively.1 Nt=N0⋅exp(-k⋅t) […]

[2] = molecular target: T1, human Fpn; test: as above; type: cell-based; conditions: 2 mM extracellular Ca2+ vs 0 mM Ca2+ plus 1 mM EGTA; 50 nl of 50 µM 65Zn injected
[3] = 2 mM extracellular Ca2+ vs 0 mM Ca2+ plus 1 mM EGTA

## [Ca+2] [Ca^2+, calcium]
[1]
  EC50: 900 µM and 800 to 900 µM and 800 µM
[1]; [3]
  Dependence of Fpn-mediated 55Fe efflux on extracellular Ca2+: dependent
  Effect of extracellular Ca2+ on Fpn-mediated 57Co efflux: activated
  Effect of extracellular Ca2+ on Fpn-mediated 63Ni efflux: activated
[1]; oocytes injected with 45Ca
  45Ca efflux from oocytes expressing Fpn vs control: did not stimulate
[2]
  Effect of extracellular Ca2+ on Fpn-mediated 65Zn efflux: activated

— article PMC6079014, “Calcium is an essential cofactor for metal efflux by the ferroportin transporter family” (Nature Communications, 2018)
